# Measurements reported in patent publication US8133294B2, “Buffered amino alcohol solutions of N-(n-butyl)thiophosphoric triamide (NBPT) and urea fertilizers using such solutions as urease inhibitors” (Whitehurst Associates, Inc., priority 2009, dated 2012).
# Entries after “also recorded” stand apart in the source; their conditions may differ.
# Tests used:
# [1] = Solubility limit of NBPT in buffered amino alcohol/carboxylic acid mixture; type: physicochemical; settings: 12% NBPT in MEA/acetic acid buffered mixture, pH 9.2 (Example 3)
# [2] = background description; cited from earlier work
# [3] = Stability of NBPT in the buffered mixture on standing (yellowing, hydrogen sulfide odor as signs of decomposition); type: physicochemical
# [4] = Sulfide test: NBPT containing buffered mixture added to copper (II) containing ARBORITE Binder 75, colour change; type: physicochemical
# Method: As another example of the instability of this formulation, the buffered NBPT containing mixture was added to ARBORITRE® Binder 75 which is an ethanolamine borate containing copper (II) ions at about 0.75%.
# […]; The NBPT containing buffered mixture was then added to ARBORITE® Binder 75.
smiles,measurement,setting,value
"CCCCNP(N)(N)=S [NBPT, N-(n-butyl)-thiophosphoric triamide]",Crystallization of the NBPT solution when chilled,[1],slight crystallization when chilled
same,Hydrolytic and thermal stability,[2],undergoes hydrolysis and is thermally unstable
same,Decomposition of NBPT in the buffered mixture over time,"[3]; 12% NBPT in MEA/acetic acid buffered mixture, pH 9.2 (Example 3)",no signs of yellowing were observed
same,Decomposition of NBPT in the buffered mixture over time,"[3]; MEA/acetic acid buffered mixture, pH 7.0 (Examples 1 and 2)",turned yellow over time and emitted an odor of hydrogen sulfide; also recorded: caused hydrolysis of the NBPT and released sulfides
same,Decomposition of NBPT in the buffered mixture over time,"[3]; TEA/acetic acid buffered mixture, pH 7.6 (Example 6)",displayed a tendency to yellow over time
same,Colour change on addition to ARBORITE Binder 75 (sulfides of copper (II)),"[4]; 20% NBPT in TEA/acetic acid buffered mixture, pH 7.6 (Example 6)",lost its characteristic blue color and appeared green
same,Colour change on addition to ARBORITE Binder 75 (sulfides of copper (II)),"[4]; 25% NBPT in MIPA/acetic acid buffered mixture, pH 9.0 (Example 13)",No reaction characteristic of the formation of sulfide salts of copper (II) was observed
same,Colour change on addition to ARBORITE Binder 75 (sulfides of copper (II)),"[4]; NBPT in MEA/acetic acid buffered mixture, pH 7.0 (Example 1)",immediately turned brown
